The results in this text go back to patent publication US5674905A, “Bicyclooctane and bicycloheptane derivatives” (James Black Foundation Limited, priority 1992, dated 1997).

This test deals with T1, CCKB receptor (Mus musculus, UniProt P56481).
T1 construct: The cortex was dissected, weighed and homogenised in 40 ml ice-cold buffer; from tissue; host or cells: cerebral cortex membranes of male CD1 mice (Charles River)
T1 sequence (P56481 1-453): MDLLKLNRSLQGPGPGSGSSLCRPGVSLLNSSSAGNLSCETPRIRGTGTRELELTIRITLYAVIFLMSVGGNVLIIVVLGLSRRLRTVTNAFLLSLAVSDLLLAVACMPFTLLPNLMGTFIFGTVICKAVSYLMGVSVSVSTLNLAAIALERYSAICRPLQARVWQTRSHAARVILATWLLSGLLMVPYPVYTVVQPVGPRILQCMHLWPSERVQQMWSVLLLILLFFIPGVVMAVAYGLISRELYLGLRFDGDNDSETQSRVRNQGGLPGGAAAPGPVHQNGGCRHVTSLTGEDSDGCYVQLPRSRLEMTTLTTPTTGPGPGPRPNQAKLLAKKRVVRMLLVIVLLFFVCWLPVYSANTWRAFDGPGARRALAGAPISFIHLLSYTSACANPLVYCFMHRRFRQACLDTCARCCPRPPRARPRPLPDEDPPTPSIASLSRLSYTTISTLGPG
Briefly: radioligand binding assay at the CCKB receptor in mouse cortical membranes ([125I]-CCK8S). Conditions: 150 min at 21±3°; for Ki: read-out: CCKB pKi (converted). Here is the method: The compounds of the examples were tested for binding at the CCKB receptor in mouse cortical membranes by means of a radioligand binding assay. The procedure was as follows:
The whole brains from male mice (CD1 22-25 g; Charles River) were removed and placed in ice-cold buffer (pH7.2 @ 21±3 °) of the following composition (mM); 10 HEPES, 130 NaCl, 4.7 KCl, 5 MgCl2, 1 EDTA and containing 0.25 g.1^-1 bacitracin. The cortex was dissected, weighed and homogenised in 40 ml ice-cold buffer using a Teflon-in-glass homogeniser. The homogenate was centrifuged at 39,800 g for 20 min at @ 4°, the supernatant discarded and the pellet resuspended by homogenisation in fresh buffer. The homogenate was recentrifuged (39,800 g; 20 min @4°) and the final pellet was resuspended in HEPES buffer to give a tissue concentration of 2 mg.ml^-1 (original wet weight).
The membranes ([…]) were incubated for 150 min at 21±3° in a final volume of 0.5 ml with HEPES buffer containing [^125 I]-CCK8S (0.05 ml; 200 pM NEN 2200 Ci.mmol^-1) and competing compound. Total and non-specific binding of [^125 I]-CCK8S were defined using 0.05 ml of buffer and 0.05 ml of […] L-365,260, respectively. The assay was terminated by rapid filtration through pre-soaked Whatman GF/B filters using a Brandell Cell harvester. The filters were washed (3×3 ml) with ice-cold 50 mM Tris-HC1 (pH7.4 @ 4° C.) and bound radioactivity determined by counting (1 min.) in a gamma-counter.

Take `COC(=O)[C@H]1CCCN1C(=O)C1C2C=CC(c3ccccc32)C1C(=O)NCC12CC3CC(CC(C3)C1)C2` (stereo partly drawn) [Example 32, exo-cis-7-(2-R-methoxycarbonyl-pyrrolidinocarbonyl)-8-(1-adamantylmethylaminocarbonyl)-5,6-benzo-bicyclo[2.2.2]oct-2-ene]: the Ki is 316 nM. For the compound `O=C(NCC1CCCCC1)[C@@H]1[C@H](C(=O)O)[C@@H]2C=C[C@H]1c1ccccc12` (relative stereo) [Example 3, exo-(±)-cis8-(1-cyclohexylmethylaminocarbonyl)-5,6-benzobicyclo[2.2.2]oct-2-ene-7-carboxylic acid], the Ki was 25100 nM. As for `C[C@@H](NC(=O)[C@@H]1CCCN1C(=O)C1C2CCC(c3ccccc32)C1C(=O)NCC12CC3CC(CC(C3)C1)C2)C(=O)O` (stereo partly drawn) [Example 44, cis-exo-7-(2S-(1R-carboxyethylaminocarbonyl)-pyrrolidinocarbonyl)-8-(1-adamantylmethylaminocarbonyl)-2,3-benzobicyclo[2.2.2]octane], the Ki is 1000 nM.

Regarding `C[C@@H](NC(=O)[C@@H]1CCCN1C(=O)C1C2CCC(c3ccccc32)C1C(=O)NCC12CC3CC(CC(C3)C1)C2)C(=O)O` (stereo partly drawn) [Example 50, cis-endo-7-(2S-(1R-carboxyethylaminocarbonyl)-pyrrolidinocarbonyl)-8-(1-adamantylmethylaminocarbonyl)-2,3-benzobicyclo[2.2.2]octane], the Ki is 2510 nM. Turning to `O=C(O)CNC(=O)[C@@H]1CCCN1C(=O)C1C2CCC(c3ccccc32)C1C(=O)NCC12CC3CC(CC(C3)C1)C2` (stereo partly drawn) [Example 45, cis-exo-7-(2R-carboxymethylaminocarbonylpyrrolidinocarbonyl)-8-(1-adamantylmethylaminocarbonyl)-2,3-benzobicyclo[2.2.2]octane], the “CCKB pKi” value is 5.6. For `O=C(NCC12CC3CC(CC(C3)C1)C2)C1C2C=CC(c3ccccc32)C1C(=O)N1C[C@H](O)C[C@@H]1C(=O)O` (stereo partly drawn) [Example 28, endo-cis-7-(2-R-carboxy-4-R-hydroxy-pyrrolidinocarbonyl)-8-(1-adamantylmethylaminocarbonyl)-5,6-benzo-bicyclo[2.2.2]oct-2-ene], the Ki is 2000 nM.

For the compound `O=C(O)C1C2c3ccccc3C(c3cc4ccccc4cc32)C1C(=O)NCC12CC3CC(CC(C3)C1)C2` (racemic) [Example 14, endo and exo cis-(±)-8-(1-adamantylmethylaminocarbonyl)-2,3-benzo-5,6-(2,3-naphtho)bicyclo[2.2.2]octane-7-carboxylic acid], the Ki is 316 nM.

For the compound `CCCCCCCCNC(=O)[C@H]1[C@@H](C(=O)O)[C@@H]2C=C[C@H]1c1ccccc12` (relative stereo) [Example 6, endo-(±)-cis-8-(octylamino-carbonyl)-5,6-benzobicyclo[2.2.2]oct-2-ene-7-carboxylic acid], the Ki is 25100 nM.

Turning to `O=C(NCC12CC3CC(CC(C3)C1)C2)C1C2c3ccccc3C(c3cc4ccccc4cc32)C1C(=O)N1CCC[C@@H]1C(=O)O` (stereo partly drawn) [Example 20, endo and exo cis-7-(2-R-carboxypyrrolidinocarbonyl)-8-(1-adamantylmethylaminocarbonyl)-2,3-benzo-5,6-(2,3-naphtho)bicyclo[2.2.2]octane], the Ki is 158 nM. On the same count and under the same terms, as for `C[C@H](NC(=O)[C@@H]1CCCN1C(=O)C1C2CCC(c3ccccc32)C1C(=O)NCC12CC3CC(CC(C3)C1)C2)C(=O)O` (stereo partly drawn) [Example 51, cis-endo-7-(2S-(1S-carboxyethylaminocarbonyl)-pyrrolidinocarbonyl)-8-(1-adamantylmethylaminocarbonyl)-2,3-benzobicyclo[2.2.2]octane], the figure is 5010 nM. As to `O=C(O)CNC(=O)[C@H]1CCCN1C(=O)C1C2CCC(c3ccccc32)C1C(=O)NCC12CC3CC(CC(C3)C1)C2` (stereo partly drawn) [Example 46, cis-endo-7-(2R-carboxymethylaminocarbonyl-pyrrolidinocarbonyl)-8-(1-adamantylmethylaminocarbonyl)-2,3-benzobicyclo[2.2.2]octane], the Ki is 398 nM. Same read-out and setting: the same measure for `O=C(O)CNC(=O)[C@@H]1CCCN1C(=O)C1C2CCC(c3ccccc32)C1C(=O)NCC12CC3CC(CC(C3)C1)C2` (stereo partly drawn) [Example 49, cis-endo-7-(2S-carboxymethylaminocarbonyl-pyrrolidinocarbonyl)-8-(1-adamantylmethylaminocarbonyl)-2,3-benzobicyclo[2.2.2]octane]: 3980 nM. The same measure, in the same setting: the same measure for `C[C@@H](NC(=O)[C@H]1CCCN1C(=O)C1C2CCC(c3ccccc32)C1C(=O)NCC12CC3CC(CC(C3)C1)C2)C(=O)O` (stereo partly drawn) [Example 47, cis-endo-7-(2R-(1R-carboxyethylaminocarbonyl)-pyrrolidinocarbonyl)-8-(1-adamantylmethylaminocarbonyl)-2,3-benzobicyclo[2.2.2]octane]: 1260 nM; for `CCCCCCCCNC(=O)[C@@H]1[C@H](C(=O)O)[C@@H]2C=C[C@H]1c1ccccc12` (relative stereo) [Example 5, exo-(±)-cis-8-(octylaminocarbonyl)-5,6-benzobicyclo[2.2.2]oct-2-ene-7-carboxylic acid]: 12600 nM; for `O=C(NCC12CC3CC(CC(C3)C1)C2)C1C2C=CC(CC2)C1C(=O)N1CCC[C@@H]1C(=O)O` (mixture of isomers) [Example 33, cis-(±)-2-(1-R-carboxy-pyrrolidinocarbonyl)-3-(1-adamantylmethylaminocarbonyl)-bicyclo[2.2.2]oct-5-ene]: 15800 nM. For `C[C@H](NC(=O)[C@H]1CCCN1C(=O)C1C2CCC(c3ccccc32)C1C(=O)NCC12CC3CC(CC(C3)C1)C2)C(=O)O` (stereo partly drawn) [Example 48, cis-endo-7-(2R-(1S-carboxyethylaminocarbonyl)-pyrrolidinocarbonyl)-8-(1-adamantylmethylaminocarbonyl)-2,3-benzobicyclo[2.2.2]octane], the Ki was 794 nM. Still for that read-out and setting: the same measure for `O=C(O)C1C2CC(c3ccccc32)C1C(=O)NCC12CC3CC(CC(C3)C1)C2` (mixture of isomers) [Example 57, endo-cis-(±)-7-(1-adamantylmethylaminocarbonyl)-2,3-benzobicyclo[2.2.1]hept-6-carboxylic acid]: 5010 nM; for `O=C(O)[C@@H]1[C@H](C(=O)NCC2CCCCC2)[C@H]2C=C[C@@H]1c1ccccc12` (relative stereo) [Example 4, endo-(±)-cis-8-(1-cyclohexylmethylaminocarbonyl)-5,6-benzobicyclo[2.2.2]oct-2-ene-7-carboxylic acid]: 39800 nM. Regarding `O=C(NCC12CC3CC(CC(C3)C1)C2)C1C(C(=O)N2CCC[C@@H]2C(=O)O)C2C=CC1C2(c1ccccc1)c1ccccc1` (mixture of isomers) [Example 53], the Ki was 1580 nM. Still for that read-out and setting: the same measure for `C[C@@H](NC(=O)C[C@@H]1CCCN1C(=O)C1C2CCC(c3ccccc32)C1C(=O)NCC12CC3CC(CC(C3)C1)C2)C(=O)O` (stereo partly drawn) [Example 52, cis-endo-7-(2S-(1R-carboxyethylaminocarbonylmethyl)-pyrrolidinocarbonyl)-8-(1-adamantylmethylaminocarbonyl)-2,3-benzobicyclo[2.2.2]octane]: 100 nM; for `O=C(NCC12CC3CC(CC(C3)C1)C2)[C@@H]1[C@H](C(=O)O)[C@@H]2C=C[C@H]1c1ccccc12` (relative stereo) [Example 1, exo-(±)-cis-8-(1-adamantylmethylaminocarbonyl)-5,6-benzobicyclo[2.2.2]oct-2-ene-7-carboxylic acid]: 3980 nM.

In the case of `C[C@H](NC(=O)[C@H]1CCCN1C(=O)C1C2CCC(c3ccccc32)C1C(=O)NCC12CC3CC(CC(C3)C1)C2)C(=O)O` (stereo partly drawn) [Example 40, cis-exo-7-(2R-(1S-carboxyethylaminocarbonyl)-pyrrolidinocarbonyl)-8-(1-adamantylmethylaminocarbonyl)-2,3-benzobicyclo-[2.2.2.]octane], the Ki is 7940 nM. Consider `O=C(NCC12CC3CC(CC(C3)C1)C2)C1C2CC(c3ccccc32)C1C(=O)N1CCC[C@@H]1C(=O)O` (mixture of isomers) [Example 59, (±)-endo-cis-6-(2R-carboxy-pyrrolidinocarbonyl)-7-(1-adamantylmethylaminocarbonyl)-2,3-benzobicyclo[2.2.1]heptane], for which the “CCKB pKi” value is on record as 5.5.
